# Source: patent US12569474B2, “Compositions and methods for treating anemia” (Akebia Therapeutics, Inc., priority 2013, dated 2026)
# “Also recorded” adds a separate entry of the source.
# Key:
# [1] = tested on: patients with Stage 3 or 4 CKD; test: Phase 2a dose escalation study, 28 days; assay type: in vivo, human
# Description: In a Phase 2a dose escalation study, 10 CKD patients received Compound 1 once daily for 28 days. Dosing began at 400 mg in CKD Stage 3 patients and 300 mg in CKD Stage 4 patients.
# [2] = Clinical data obtained to date (summary over studies); assay type: in vivo, human
# From the text: Furthermore, this is achieved with a modest increase in the daily peak level of EPO, but with no increase in basal (pre-dose) levels (in a manner that mimics the physiologic diurnal response in healthy individuals).
# healthy male adults [3] = test: Phase 1b multiple ascending dose (MAD) study, EPO response; assay type: in vivo, human
# healthy male adults [4] = test: Phase 1a single ascending dose (SAD) study, EPO response; assay type: in vivo, human
# [5] = tested on: patients having anemia secondary to CKD; test: Compound 1 at 500 mg in patients having anemia secondary to CKD: EPO levels and half-life over 24 hours; assay type: in vivo, human
# From the text: Current treatment of anemia associated with chronic kidney disease (CKD) with erythropoiesis-stimulating agents (ESAs) can lead to supraphysiological levels of circulating erythropoietin (EPO) that persist for days, a profile that may be associated with increased cardiovascular side effects and thromboembolic events. […] In a randomized double-blind, placebo-controlled Phase 2a trial, 93 patients with CKD stage 3, 4, or 5 (not on dialysis) received placebo or Compound 1 in the following dose groups: 240, 370, 500, or 630 mg once daily for 6 weeks. […]
# [6] = tested on: patients with CKD stage 3, 4, or 5 (not on dialysis); test: Randomized double-blind, placebo-controlled Phase 2a trial, 6 weeks; assay type: in vivo, human
# From the text: Current treatment of anemia associated with chronic kidney disease (CKD) with erythropoiesis-stimulating agents (ESAs) can lead to supraphysiological levels of circulating erythropoietin (EPO) that persist for days, a profile that may be associated with increased cardiovascular side effects and thromboembolic events. […] In a randomized double-blind, placebo-controlled Phase 2a trial, 93 patients with CKD stage 3, 4, or 5 (not on dialysis) received placebo or Compound 1 in the following dose groups: 240, 370, 500, or 630 mg once daily for 6 weeks. […] Erythropoietin was measured at baseline, week 2, end of treatment and follow up.
# In a randomized double-blind, placebo-controlled Phase 2a clinical trial, 93 patients with CKD stage 3, 4, or 5 (not on dialysis) received placebo or Compound 1 in the following dose groups: 240, 370, 500, or 630 mg once daily for 6 weeks. […] TIBC and serum iron levels were measured at baseline, week 2, week 4, end of treatment (week 6) and follow up.
# In a randomized double-blind, placebo-controlled Phase 2a trial, 93 patients with CKD stage 3, 4, or 5 (not on dialysis) received placebo or Compound 1 in the following dose groups: 240, 370, 500, or 630 mg once daily for 6 weeks.
# healthy adult males = test: Phase I clinical trials in healthy adult males (overall); assay type: in vivo, human
# From the text: This was a surprising result for a number of reasons. […] Thus, particularly with regard to patients having a disease or condition associated with kidney impairment, a person of skill in the art would not expect that administration of a compound provided herein could cause an increase in a patient's serum hemoglobin levels while also mimicking the diurnal variation of serum EPO levels in healthy individuals and without raising the patients' baseline serum EPO levels.
# [7] = tested on: EPO production in Hep3B cells; test: In Vitro EPO Induction Assay (secreted EPO immunoassay); assay type: cell-based, human
# Description: (§1) Materials and Methods: Cell Culture: Human hepatocellular carcinoma (Hep3B) cells were obtained from the American Type Culture Collection (ATCC, Mannassas, VA) and cultured according to ATCC recommendations. Cells were cultured at 37° C. in an atmosphere of 95% air and 5% C02 in a humidified incubator. Compound 13 was diluted to a stock concentration of 50 mM in DMSO (Sigma).
# (§2) Cell Treatments: Hep3B cells were plated on 24 well plates. Subsets of Hep3B cultures were transfected with a HIF reporter plasmid (pHRE-luciferase) overnight. (See Sheta, et al., Oncogene. 2001 Nov. 15; 20(52):7624-34.) Cells were exposed to vehicle (1:1000 DMSO) or test Compound 13 at 50 m for 18 hours at 37° C. in an atmosphere of 95% air and 5% CO2 in a humidified incubator.
# (§3) Analysis: After 48-hour culture, cell supernatants were subsequently collected, centrifuged at 15,000×g for 15 minutes at 4° C. to sediment debris.
# In Vitro EPO Induction Assay: Secreted EPO levels were assayed by specific immunoassay (MesoScale Discovery, Gaithersburg, MD) in accordance with manufacturer's instructions.
# (§4) Compound 13 was assayed in duplicate. Fold change over the vehicle control was calculated. Compound 13 was tested at a concentration of 50 m. […] Resulting values for the In Vitro EPO Induction Assay, and In Vitro HIF Prolyl Hydroxylase Inhibition Assay are shown in Table 1 and Table 2.
# HIF prolyl hydroxylase = test: In Vitro HIF Prolyl Hydroxylase Inhibition Assay (HRE luciferase reporter); assay type: cell-based, human
# Description: as §1, §2, §3
# In Vitro HIF Prolyl Hydroxylase Inhibition Assay: Cell lysates were assayed using the dual luciferase reporter-assay (Promega, Madison, WI, USA). Observed firefly luciferase activity was normalized to a co-transfected Renilla luciferase.
# as §4
# [8] = 240, 370, 500, or 630 mg once daily for 6 weeks, all dose groups, ANOVA p<0.0001
structure (smiles),measurement,setting,value
"O=C(O)CNC(=O)c1ncc(-c2cccc(Cl)c2)cc1O [Compound 1, {[5-(3-chlorophenyl)-3-hydroxypyridine-2-carbonyl]amino}acetic acid]",Hemoglobin by Day 29,"[1]; 10 CKD Stage 3 and 4 patients, once daily 28 days, start 400 mg (Stage 3) or 300 mg (Stage 4), +100 mg steps, baseline 9.91 g/dL",10.54 g/dL
same,Ferritin by Day 29,"[1]; 10 CKD Stage 3 and 4 patients, once daily 28 days, baseline 334.10 ng/mL",271.70 ng/mL
same,Tolerability,"[1]; patients with Stage 3 or 4 CKD, 28 days",well-tolerated
same,Hepcidin and ferritin,[2]; dose responsive changes,decreases in hepcidin and ferritin
same,Total iron binding capacity,[2]; dose responsive changes,increase in total iron binding capacity
same,Baseline EPO,"[2]; human, in vivo",without increasing baseline EPO
same,EPO levels (daily),[2]; similar to the physiologic diurnal response,modest dose-proportional daily increases in EPO levels
same,Peak EPO concentration,healthy male adults [3]; multiple ascending dose,dose responsive increase
same,EPO concentration prior to the next morning dose,healthy male adults [3]; regardless of the dosing group,essentially returned to baseline
same,EPO increase compared to placebo,"healthy male adults [4]; 600 mg cohort, 8 hours, p=0.034",significant increase
same,EPO rise compared to placebo,"healthy male adults [4]; 900 and 1200 mg groups, 8, 12, 18, and 24 hours following dosing, p<0.01","significant, dose-dependent rises"
same,Half-life in patients with anemia secondary to CKD compared to healthy individuals,[5]; CKD patients vs healthy adult males,approximately twice as long; also recorded: significantly longer
same,Time to return to baseline EPO levels,"[5]; dose of 500 mg, patients having anemia secondary to CKD",≤ 24 h
same,HGB (hemoglobin) at Week 6 compared to baseline and to placebo,[6]; [8],able to increase serum hemoglobin levels; also recorded: significantly increased HGB; also recorded: significantly increased hemoglobin levels
same,TIBC at Week 6 compared to baseline and to placebo,[6]; [8],able to increase TIBC levels; also recorded: significantly increased TIBC
same,TIBC dose relation at Week 6,[6]; 240-630 mg once daily,dose-related increase in TIBC; also recorded: dose-related increase in total iron binding capacity
same,Serum iron levels relative to baseline,[6]; Week 6,not associated with an increase in serum iron levels; also recorded: without increasing serum iron levels
same,TSAT at Week 6,[6]; Week 6,decrease in TSAT
same,Hepcidin expression at low doses,"[6]; low doses, such as the 240 mg group, Week 6",not accompanied by a decrease in hepcidin expression
same,Serum levels of EPO over time,"[6]; measured at baseline, week 2, end of treatment and follow up",did not increase significantly over time
same,Daily EPO levels in CKD patients,[6]; mimicking the physiologic diurnal response,moderate daily increases in EPO levels
same,Basal (pre-dose) EPO levels,"[6]; prior to daily dose, 6 weeks",without increasing basal (pre-dose) EPO levels
same,HGB dose response,[6]; starting from the lowest dose (240 mg),clear dose-responsive increase in HGB
same,Rise in EPO relative to dose,healthy adult males; Phase 1 studies,proportionate to the dose
same,Serum EPO levels after administration,healthy adult males; healthy adult males,returned to approximately baseline levels within twenty-four hours
same,Serum hemoglobin levels,healthy adult males; healthy adult males,able to increase serum hemoglobin levels
"NCCNC(=O)c1ncccc1O [Compound 13, N-(2-aminoethyl)-3-hydroxy-pyridine-2-carboxamide]",Mean [EPO],"[7]; Compound 13, 18 hours, assayed in duplicate, vehicle 3.0736",8.9137 mIU/mL
same,"Fold Change (EPO, over vehicle control)","[7]; Compound 13, inactive if ≤1.0 fold over control",2.9001
same,EPO production (result in words),[7]; vs DMSO vehicle,increase EPO production
same,Mean HIF PH Inhibition Activity (Relative Luciferase),"HIF prolyl hydroxylase; Hep3B cells transfected with pHRE-luciferase, Compound 13 at 50 µM, firefly normalized to Renilla, vehicle 1",3.6
same,HIF prolyl hydroxylase enzyme activity (result in words),"HIF prolyl hydroxylase; Hep3B cells, 50 µM, vs DMSO vehicle",inhibit HIF prolyl hydroxylase enzyme activity
same,"Fold Change (HIF PH inhibition activity, over vehicle control)","HIF prolyl hydroxylase; Hep3B cells, Compound 13 at 50 µM, inactive if ≤1.0 fold over control",3.6
